PMC7013880, “Synthesis of Spin-Labelled Bergamottin: A Potent CYP3A4 Inhibitor with Antiproliferative Activity” (International Journal of Molecular Sciences, 2020)
pIC50: −log10 of the molar value.

Experiments:
NIH3T3 cells = assay: WST-1 cell viability assay, NIH3T3 fibroblasts; type: cell-based; settings: Mus musculus, NIH3T3 murine embryonic fibroblasts, 24 h treatment
Procedure: (§1) Murine embryonic fibroblast NIH3T3 cells were maintained in DMEM (Cat No. 043-30085, Wako Pure Chemical, Osaka, Japan) supplemented with 10% newborn calf serum (NBCS) at 37 °C and 5% CO2. Human cervix carcinoma HeLa cells were maintained in DMEM supplemented with 10% fetal bovine serum at 37 °C and 5% CO2. To determine the toxicity of BM and SL-BM, the WST-1 cell viability assay was employed as described previously. The cells (NIH3T3: 2000 per well; HeLa: 5000 per well) were seeded into all the wells of 96-well plates. After 24 h, the medium was replaced, and the cells were treated with the test compounds for 24 h. Then, the cells were incubated with a WST-1 solution (3.6 µg/µL WST-1, 70 ng/µL 1-methoxy phenazine methosulfate in 20 mM 4-(2-hydroxyethyl)-1-piperazineethanesufonic acid–KOH (pH 7.4); Dojindo, Kumamoto, Japan) for 1 h at 37 °C, and the absorbance of each well was recorded at 440 nm using a Multiskan FC microplate reader (Thermo Fisher Scientific).

HeLa cells = assay: WST-1 cell viability assay, HeLa cells; type: cell-based; settings: HeLa human cervix carcinoma cells, 24 h treatment
Procedure: as §1

CYP2C19 = CYP2C19 (Homo sapiens, UniProt P33261); assay: CYP2C19 inhibition assay (CypExpress 2C19 kit, S-mephenytoin substrate, HPLC); settings: relative to BM
Procedure: (§2) Stock solutions of BM, SL-BM, and positive controls (each 5000 μM) were prepared in dimethyl sulfoxide (Fluka) and stored at –20 °C. The inhibitory effects of BM and SL-BM on the CYP2C9, 2C19, and 3A4 enzymes were examined using CypExpress^TM assay kits by employing diclofenac, S-mephenytoin, and testosterone substrates, respectively.
(§3) The substrates and products were analyzed using the HPLC system comprising a pump (Waters 510; Milford, MA, USA), an injector (Rheodyne 7125) with a 20 μL sample loop, and a UV detector (Waters 486). The data were evaluated by employing Millennium Chromatographic Manager software (Waters). HPLC analyses of diclofenac and 4′-hydroxydiclofenac (CYP2C9 assay) [39, 40], S-mephenytoin, and 4-hydroxymephenytoin [42] as well as testosterone and 6β-hydroxytestosterone (CYP3A4 assay) [41] were performed as described previously.
(§4) Data were derived from at least three independent experiments and represented as the mean ± the standard error of the mean (SEM) values. The statistical significance (p < 0.05 and p < 0.01) was established by employing a one-way ANOVA test (IBS SPSS Statistics, v. 21; Armonk, NY, USA). The metabolite formation (% of control) was plotted as a function of the logarithmic concentrations, and then the IC50 values were determined using GraphPad Prism 8 software (San Diego, CA, USA).

CYP2C9 = CYP2C9 (Homo sapiens, UniProt P11712)
Chain of CYP2C9 (P11712 whole entry): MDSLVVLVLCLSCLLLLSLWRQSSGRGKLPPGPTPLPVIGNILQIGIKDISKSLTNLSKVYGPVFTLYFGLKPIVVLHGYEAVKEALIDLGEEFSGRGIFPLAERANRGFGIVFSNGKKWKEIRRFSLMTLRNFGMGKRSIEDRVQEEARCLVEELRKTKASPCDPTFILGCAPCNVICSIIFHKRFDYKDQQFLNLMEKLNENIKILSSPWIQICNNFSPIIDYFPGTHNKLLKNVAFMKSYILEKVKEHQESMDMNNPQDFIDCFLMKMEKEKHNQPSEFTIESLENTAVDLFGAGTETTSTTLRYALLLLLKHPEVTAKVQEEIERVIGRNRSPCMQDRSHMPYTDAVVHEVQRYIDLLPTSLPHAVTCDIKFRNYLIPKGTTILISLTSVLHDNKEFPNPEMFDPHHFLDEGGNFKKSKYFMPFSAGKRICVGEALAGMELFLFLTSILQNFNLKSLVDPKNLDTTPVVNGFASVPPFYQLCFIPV
Procedure: as §2, §3, §4

Chain of CYP2C19 (P33261 whole entry): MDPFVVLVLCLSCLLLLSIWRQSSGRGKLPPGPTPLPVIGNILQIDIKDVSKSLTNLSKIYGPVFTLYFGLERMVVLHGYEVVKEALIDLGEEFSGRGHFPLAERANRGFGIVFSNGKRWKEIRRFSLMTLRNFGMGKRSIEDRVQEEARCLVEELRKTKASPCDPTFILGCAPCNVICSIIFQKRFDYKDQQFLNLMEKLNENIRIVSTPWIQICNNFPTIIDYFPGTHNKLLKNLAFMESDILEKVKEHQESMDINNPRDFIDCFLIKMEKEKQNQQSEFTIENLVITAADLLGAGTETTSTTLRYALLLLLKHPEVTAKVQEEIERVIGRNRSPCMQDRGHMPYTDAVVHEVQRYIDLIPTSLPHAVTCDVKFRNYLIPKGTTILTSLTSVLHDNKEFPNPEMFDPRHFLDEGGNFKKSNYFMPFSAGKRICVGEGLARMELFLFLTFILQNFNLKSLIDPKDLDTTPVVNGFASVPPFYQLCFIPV

## CC(C)=CCC/C(C)=C/COc1c2ccoc2cc2oc(=O)ccc12 [Bergamottin, 5-geranoxypsoralen]
NIH3T3 cells
  pIC50: < 4.30
HeLa cells
  pIC50: < 4.30

## C/C(=C\COc1c2ccoc2cc2oc(=O)ccc12)CCC=C1CC(C)(C)N([O])C(C)(C)C1 [SL-Bergamottin]
NIH3T3 cells
  pIC50: < 4.30
HeLa cells
  pIC50: 4.76
other
  melting point: 51 to 53 °C
CYP2C19
  fold weaker inhibitor of CYP2C19 than BM: ~15 fold

## CC(=O)CC(c1ccccc1)c1c(O)c2ccccc2oc1=O (centres unmarked) [Warfarin, warfarin]
CYP2C9
  IC50(rel): IC50 of the inhibitor divided by the substrate concentration: 1.96
  α: IC50 of the inhibitor divided by the IC50 value of the positive control: 1.00
